# In patent publication US9326973B2, “Hepatitis C virus inhibitors” (priority 2012, dated 2016):
# Tested on: HCV replicon, genotype-1a variant with glutamine 30 changed to glutamate in the NS5A protein
# Assay: microbe, parasite or virus in culture
# Type: cell-based, HCV genotype 1a
# Conditions: HCV replicon genotype 1a Q30E (Q→E) variant; test compound titrated with an NS5A-targeting compound (BMS-790052 fixed at 200 nM); ranking of synergist activity
# Procedure, shortened: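 Synergy was assessed by combining several fixed amounts of an NS5A-targeting compound with a titration of the second compound of interest.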
row,SMILES,Fold-Synergistic 1a (Q30E)
1,CC(C)(C)OC(=O)N1C[C@H](O)C[C@H]1C(=O)N[C@H](c1nc(-c2ccc(-c3ccc(-c4c[nH]c([C@@H](NC(=O)[C@@H]5C[C@@H](O)CN5C(=O)OC(C)(C)C)C(C)(C)C)n4)cc3)cc2)c[nH]1)C(C)(C)C [Compound W-96],>100 fold
2,CC(C)(C)[C@H](NC(=O)[C@@H]1CCCO1)c1nc(-c2ccc(-c3ccc(-c4c[nH]c([C@@H](NC(=O)[C@@H]5CCCO5)C(C)(C)C)n4)cc3)cc2)c[nH]1 [Compound L-65],>100 fold
3,O=C(C1CCCCCC1)N1CCC[C@H]1c1ncc(-c2ccc(-c3ccc(-c4cnc([C@@H]5CCCN5C(=O)C5CCCCCC5)[nH]4)cc3)cc2)[nH]1 [Compound S-176],>10 fold
4,CC(C)(C)[C@H](NC(=O)C1(O)CCCC1)c1nc(-c2ccc(-c3ccc(-c4c[nH]c([C@@H](NC(=O)C5(O)CCCC5)C(C)(C)C)n4)cc3)cc2)c[nH]1 [Compound L-73],>100 fold
5,CC(C)(C)[C@H](NC(=O)C(O)(C1CC1)C1CC1)c1nc(-c2ccc(-c3ccc(-c4c[nH]c([C@@H](NC(=O)C(O)(C5CC5)C5CC5)C(C)(C)C)n4)cc3)cc2)c[nH]1 [Compound P-169],>100 fold
6,CC(C)(C)[C@H](NC(=O)C1(O)CCC1)c1nc(-c2ccc(-c3ccc(-c4c[nH]c([C@@H](NC(=O)C5(O)CCC5)C(C)(C)C)n4)cc3)cc2)c[nH]1 [Compound L-71],>100 fold
7,CC(C)(C)[C@H](NC(=O)C(=O)N1CC[C@H](F)C1)c1nc(-c2ccc(-c3ccc(-c4c[nH]c([C@@H](NC(=O)C(=O)N5CC[C@H](F)C5)C(C)(C)C)n4)cc3)cc2)c[nH]1 [Compound W-27],>100 fold
8,COC(C)(C)[C@H](NC(=O)C(C)(C)CF)c1nc(-c2ccc(-c3ccc(-c4c[nH]c([C@@H](NC(=O)C(C)(C)CF)C(C)(C)OC)n4)cc3)cc2)c[nH]1 [Compound P-10],>100 fold
9,COC(C)(C)C(=O)N[C@H](c1nc(-c2ccc(-c3ccc(-c4c[nH]c([C@@H](NC(=O)C(C)(C)OC)C(C)(C)C)n4)c(F)c3)cc2)c[nH]1)C(C)(C)C [Compound N-94],>100 fold
10,COC(=O)N[C@@H](C(=O)N[C@@H](C)c1nc(-c2ccc(-c3ccc(-c4c[nH]c([C@H](C)NC(=O)[C@H](NC(=O)OC)C(C)C)n4)cc3)cc2)c[nH]1)C(C)C [Compound N-37],>10 fold
11,CC(=O)N(C)C1(C(=O)N[C@H](c2nc(-c3ccc(-c4ccc(-c5c[nH]c([C@@H](NC(=O)C6(N(C)C(C)=O)CCC6)C(C)(C)C)n5)cc4)cc3)c[nH]2)C(C)(C)C)CCC1 [Compound L-12],>100 fold
12,CC(CF)(CF)OC(=O)NC1(C(=O)N[C@H](c2nc(-c3ccc(-c4ccc(-c5c[nH]c([C@@H](NC(=O)C6(NC(=O)OC(C)(CF)CF)CC6)C(C)(C)C)n5)cc4)cc3)c[nH]2)C(C)(C)C)CC1 [Compound L-27],>100 fold
13,CC(C)(C)[C@H](NC(=O)CC1CCCO1)c1nc(-c2ccc(-c3ccc(-c4c[nH]c([C@@H](NC(=O)CC5CCCO5)C(C)(C)C)n4)cc3)cc2)c[nH]1 (stereo partly drawn) [Compound L-70],>100 fold
14,O=C(C1Cc2ccccc2O1)N1CCC[C@H]1c1ncc(-c2ccc(-c3ccc(-c4cnc([C@@H]5CCCN5C(=O)C5Cc6ccccc6O5)[nH]4)cc3)cc2)[nH]1 (some centres unmarked) [Compound S-157],>10 fold
15,COC(=O)N[C@@H]1CCCCC1C(=O)N[C@H](c1nc(-c2ccc(-c3ccc(-c4c[nH]c([C@@H](NC(=O)C5CCCC[C@H]5NC(=O)OC)C(C)(C)C)n4)cc3)cc2)c[nH]1)C(C)(C)C (some centres unmarked) [Compound S-275],>100 fold
16,CC(C)(C)[C@H](Nc1nc(C(F)(F)F)c(Cl)s1)c1nc(-c2ccc(-c3ccc(-c4c[nH]c([C@@H](Nc5nc(C(F)(F)F)c(Cl)s5)C(C)(C)C)n4)cc3)cc2)c[nH]1 [Compound W-180],<10 fold
17,CC(C)(C)[C@H](NC(=O)C(C)(O)C(F)(F)F)c1nc(-c2ccc(-c3ccc(-c4c[nH]c([C@@H](NC(=O)C(C)(O)C(F)(F)F)C(C)(C)C)n4)cc3)cc2)c[nH]1 (stereo partly drawn) [Compound L-66a],>100 fold
18,CC(C)(C)[C@H](NC(=O)C1CC(=O)c2ccccc2C1)c1nc(-c2ccc(-c3ccc(-c4c[nH]c([C@@H](NC(=O)C5CC(=O)c6ccccc6C5)C(C)(C)C)n4)cc3)cc2)c[nH]1 (some centres unmarked) [Compound S-256],>100 fold
19,CC[C@H](NC(=O)[C@H](NC(=O)OC)C(C)C)c1nc(-c2ccc(-c3ccc(-c4c[nH]c([C@H](CC)NC(=O)[C@H](NC(=O)OC)C(C)C)n4)cc3)cc2)c[nH]1 [Compound N-40],>100 fold
20,C[C@H]1CC[C@@H](C(=O)N[C@H](c2nc(-c3ccc(-c4ccc(-c5c[nH]c([C@@H](NC(=O)[C@@H]6CC[C@H](C)N6C(=O)OC(C)(C)C)C6(C)CC6)n5)cc4)cc3)c[nH]2)C2(C)CC2)N1C(=O)OC(C)(C)C [Compound W-72],>100 fold
21,CC(C)[C@H](NC(=O)c1ccccc1F)c1nc(-c2ccc(-c3ccc(-c4c[nH]c([C@@H](NC(=O)c5ccccc5F)C(C)C)n4)c(F)c3)cc2)c[nH]1 [Compound N-92],>100 fold

row,SMILES,Fold-Synergistic 1a (Q30E)
1,CC(C)(C)C(=O)N[C@H](c1nc(-c2ccc(-c3cnc(-c4c[nH]c([C@@H](NC(=O)C(C)(C)C)C(C)(C)C)n4)cn3)cc2)c[nH]1)C(C)(C)C [Compound N-105],>100 fold
2,CCC(CC)(NC(=O)OC(C)(C)C)C(=O)N[C@H](c1nc(-c2ccc(-c3ccc(-c4c[nH]c([C@@H](NC(=O)C(CC)(CC)NC(=O)OC(C)(C)C)C(C)(C)C)n4)cc3)cc2)c[nH]1)C(C)(C)C [Compound L-24],>100 fold
3,CC1(C(=O)N[C@H](c2nc(-c3ccc(-c4ccc(-c5c[nH]c([C@@H](NC(=O)C6(C)CC6)C(C)(C)C)n5)cc4)cc3)c[nH]2)C(C)(C)C)CC1 [Compound L-45],>100 fold
4,CC1(C(=O)N[C@H](c2nc(-c3ccc(-c4ccc(-c5c[nH]c([C@@H](NC(=O)C6(C)OCCCO6)C(C)(C)C)n5)cc4)cc3)c[nH]2)C(C)(C)C)OCCCO1 [Compound L-83],>100 fold
5,CC(C)(C)OC(=O)N[C@]1(C(=O)N[C@H](c2nc(-c3ccc(-c4ccc(-c5c[nH]c([C@@H](NC(=O)[C@@]6(NC(=O)OC(C)(C)C)C[C@H]6c6ccccc6)C(C)(C)C)n5)cc4)cc3)c[nH]2)C(C)(C)C)C[C@H]1c1ccccc1 [Compound W-8],>100 fold
6,CC(C)(C)[C@H](NC(=O)C1(C2(O)CCC(F)(F)CC2)CC1)c1nc(-c2ccc(-c3ccc(-c4c[nH]c([C@@H](NC(=O)C5(C6(O)CCC(F)(F)CC6)CC5)C(C)(C)C)n4)cc3)cc2)c[nH]1 [Compound P-146],>100 fold
7,O=C(c1cccc(Oc2ccccc2)c1)N1CCC[C@H]1c1ncc(-c2ccc(-c3ccc(-c4cnc([C@@H]5CCCN5C(=O)c5cccc(Oc6ccccc6)c5)[nH]4)cc3)cc2)[nH]1 [Compound S-116],<10 fold
8,CC(C)(C)[C@H](NC(=O)C12CCC(O)(CC1)CC2)c1nc(-c2ccc(-c3ccc(-c4c[nH]c([C@@H](NC(=O)C56CCC(O)(CC5)CC6)C(C)(C)C)n4)cc3)cc2)c[nH]1 [Compound W-128],>100 fold
9,N#CCC(=O)N1CCC[C@H]1c1ncc(-c2ccc(-c3ccc(-c4cnc([C@@H]5CCCN5C(=O)CC#N)[nH]4)cc3)cc2)[nH]1 [Compound S-171],<10 fold
10,O=C(Cc1ccncc1)N1CCC[C@H]1c1ncc(-c2ccc(-c3ccc(-c4cnc([C@@H]5CCCN5C(=O)Cc5ccncc5)[nH]4)cc3)cc2)[nH]1 [Compound S-150],<10 fold
11,COC(=O)N[C@H](C(=O)NC1(c2nc(-c3ccc(-c4ccc(-c5c[nH]c(C6(NC(=O)[C@@H](NC(=O)OC)C(C)C)CC6)n5)cc4)cc3)c[nH]2)CC1)C(C)C [Compound N-20],<10 fold
12,CC(C)[C@H](NC(=O)C(=O)N1CCCCCC1)c1nc(-c2ccc(-c3ccc(-c4c[nH]c([C@@H](NC(=O)C(=O)N5CCCCCC5)C(C)C)n4)cc3)cc2)c[nH]1 [Compound W-52],>100 fold
13,Cc1cc(-c2ccc(-c3c[nH]c([C@@H](NC(=O)C(C)(C)C)C(C)(C)C)n3)cc2)ccc1-c1c[nH]c([C@@H](NC(=O)C(C)(C)C)C(C)(C)C)n1 [Compound N-86],>100 fold
14,CC[C@H](NC(=O)CC(C)C)c1nc(-c2ccc(-c3ccc(-c4c[nH]c([C@H](CC)NC(=O)CC(C)C)n4)cc3)cc2)c[nH]1 [Compound N-42],>100 fold
15,CC(C)(C)[C@H](NC(=O)C(=O)N(CCC#N)C1CC1)c1nc(-c2ccc(-c3ccc(-c4c[nH]c([C@@H](NC(=O)C(=O)N(CCC#N)C5CC5)C(C)(C)C)n4)cc3)cc2)c[nH]1 [Compound W-48],>100 fold
16,O=C(Cc1ccccc1F)N1CCC[C@H]1c1ncc(-c2ccc(-c3ccc(-c4cnc([C@@H]5CCCN5C(=O)Cc5ccccc5F)[nH]4)cc3)cc2)[nH]1 [Compound S-178],<10 fold
17,CC(C)CCC(=O)N1CCC[C@H]1c1ncc(-c2ccc(-c3ccc(-c4cnc([C@@H]5CCCN5C(=O)CCC(C)C)[nH]4)cc3)cc2)[nH]1 [Compound S-174],<10 fold
18,CC(C)(C)OC(=O)N1CCCCC1(C)C(=O)N[C@H](c1nc(-c2ccc(-c3ccc(-c4c[nH]c([C@@H](NC(=O)C5(C)CCCCN5C(=O)OC(C)(C)C)C(C)(C)C)n4)cc3)cc2)c[nH]1)C(C)(C)C (stereo partly drawn) [Compound L-46a],>100 fold
19,CC(C)(C)[C@H](NC(=O)C12CCC(CC1)CO2)c1nc(-c2ccc(-c3ccc(-c4c[nH]c([C@@H](NC(=O)C56CCC(CC5)CO6)C(C)(C)C)n4)cc3)cc2)c[nH]1 [Compound Y-74],>100 fold
20,O=C(c1cccc2cnccc12)N1CCC[C@H]1c1ncc(-c2ccc(-c3ccc(-c4cnc([C@@H]5CCCN5C(=O)c5cccc6cnccc56)[nH]4)cc3)cc2)[nH]1 [Compound S-203],<10 fold
